These molecules were tested against T1, human PAH with the R408W mutation (A375 R408W cells) (Homo sapiens, UniProt P00439, R408W) (assay: Cell Based Phenylalanine Flux Assay). Details: A375 R408W cells; 24 hrs with compound, then 20 μM sepiapterin and 800 μM 13C9,15N-Phenylalanine for 4 hours; 13C-Tyrosine by LC-MS; average where tested multiple times.
T1 construct: expressed in transfected cells
T1 sequence (P00439 1-452 R408W): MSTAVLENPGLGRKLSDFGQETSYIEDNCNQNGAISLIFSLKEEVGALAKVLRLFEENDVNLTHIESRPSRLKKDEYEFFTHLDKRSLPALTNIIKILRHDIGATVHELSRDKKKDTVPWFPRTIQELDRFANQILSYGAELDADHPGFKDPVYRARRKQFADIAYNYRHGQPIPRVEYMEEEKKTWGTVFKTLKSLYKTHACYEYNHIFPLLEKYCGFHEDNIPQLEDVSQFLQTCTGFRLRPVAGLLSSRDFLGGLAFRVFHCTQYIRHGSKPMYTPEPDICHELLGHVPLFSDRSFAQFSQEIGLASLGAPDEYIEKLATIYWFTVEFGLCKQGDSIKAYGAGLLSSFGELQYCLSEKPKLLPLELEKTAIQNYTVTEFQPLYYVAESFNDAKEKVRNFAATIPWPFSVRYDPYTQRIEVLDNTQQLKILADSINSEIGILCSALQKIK
In short: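 A375 cells stably expressing lentiviral human PAH R408W were treated with compounds (10-point 2-fold dilutions, 0.5% DMSO, duplicate) for 24 h at 37 °C. Then 20 μM sepiapterin and 800 μM 13C9,15N-Phe were added for 4 h; media 13C-Tyr was measured by LC-MS to give AC50.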

Row | Structure (SMILES) | AC50 [nM]
1 | Cc1ccc2oc([C@@H]3c4nc[nH]c4CCN3C(=O)c3nnc(-c4cnn(C)c4)o3)nc2c1 [Example 111, (S)-(5-(1-methyl-1H-pyrazol-4-yl)-1,3,4-oxadiazol-2-yl)(4-(5-methylbenzo[d]oxazol-2-yl)-6,7-dihydro-1H-imidazo[4,5-c]pyridin-5(4H)-yl)methanone] | 500 to 1000
2 | Cn1ccc(-c2nnc(C(=O)N3CCc4[nH]cnc4[C@H]3c3nc4ccccc4o3)o2)n1 [Example 843, (S)-(4-(benzo[d]oxazol-2-yl)-6,7-dihydro-1H-imidazo[4,5-c]pyridin-5(4H)-yl)(5-(1-methyl-1H-pyrazol-3-yl)-1,3,4-oxadiazol-2-yl)methanone] | ≤ 500

The next lines start with the values.

Row | AC50 [nM] | Structure (SMILES)
3 | 500 to 1000 | O=C(c1nnc(C2CC2)o1)N1CCc2[nH]cnc2[C@H]1c1nc2cc(F)ccc2o1 [Example 15, (S)-(5-cyclopropyl-1,3,4-oxadiazol-2-yl)(4-(5-fluorobenzo[d]oxazol-2-yl)-6,7-dihydro-1H-imidazo[4,5-c]pyridin-5(4H)-yl)methanone]
4 | 500 to 1000 | O=C(c1cnn2cc(N3CCC4(CC3)CC4)ccc12)N1CCc2[nH]cnc2[C@H]1c1nc2cccc(F)c2o1 [Example 395, (S)-(6-(6-azaspiro[2.5]octan-6-yl)pyrazolo[1,5-a]pyridin-3-yl)(4-(7-fluorobenzo[d]oxazol-2-yl)-6,7-dihydro-1H-imidazo[4,5-c]pyridin-5(4H)-yl)methanone]
5 | ≤ 500 | [2H][C@@]1(c2nc3cccc(F)c3o2)c2nc[nH]c2CCN1C(=O)c1ocnc1C(F)F [Example 899, (S)-(4-(difluoromethyl)oxazol-5-yl)(4-deuterium-4-(7-fluorobenzo[d]oxazol-2-yl)-6,7-dihydro-1H-imidazo[4,5-c]pyridin-5(4H)-yl)methanone]
6 | ≤ 500 | O=C(c1nnc(-c2ncccc2F)o1)N1CCc2[nH]cnc2[C@H]1c1nc2cccc(C(F)(F)F)c2o1 [Example 840, (S)-(5-(3-fluoropyridin-2-yl)-1,3,4-oxadiazol-2-yl)(4-(7-(trifluoromethyl)benzo[d]oxazol-2-yl)-6,7-dihydro-1H-imidazo[4,5-c]pyridin-5(4H)-yl)methanone]
7 | ≤ 500 | O=C(c1oc(N2CCC(F)CC2)nc1C(F)F)N1CCc2[nH]cnc2[C@H]1c1nc2cccc(F)c2o1 [Example 676, (S)-(4-(difluoromethyl)-2-(4-fluoropiperidin-1-yl)oxazol-5-yl)(4-(7-fluorobenzo[d]oxazol-2-yl)-6,7-dihydro-1H-imidazo[4,5-c]pyridin-5(4H)-yl)methanone]
8 | 500 to 1000 | O=C(c1nnc(-c2cnn(C(F)F)c2)o1)N1CCc2[nH]cnc2[C@@H]1c1nc2c(F)ccc(F)c2o1 [Example 802, (R)-(4-(4,7-difluorobenzo[d]oxazol-2-yl)-6,7-dihydro-1H-imidazo[4,5-c]pyridin-5(4H)-yl)(5-(1-(difluoromethyl)-1H-pyrazol-4-yl)-1,3,4-oxadiazol-2-yl)methanone]
9 | ≤ 500 | CC(C)(O)c1nc(C(F)F)c(C(=O)N2CCc3[nH]cnc3[C@H]2c2nc3c(F)ccc(F)c3o2)o1 [Example 345, (S)-(4-(4,7-difluorobenzo[d]oxazol-2-yl)-6,7-dihydro-1H-imidazo[4,5-c]pyridin-5(4H)-yl)(4-(difluoromethyl)-2-(2-hydroxypropan-2-yl)oxazol-5-yl)methanone]
10 | 1000 to 5000 | Cc1nc([C@@H](C)O)oc1C(=O)N1CCc2[nH]cnc2[C@H]1c1nc2cc(F)ccc2o1 [Example 135, ((S)-4-(5-fluorobenzo[d]oxazol-2-yl)-6,7-dihydro-1H-imidazo[4,5-c]pyridin-5(4H)-yl)(2-((R)-1-hydroxyethyl)-4-methyloxazol-5-yl)methanone]

Same assay, conditions: A375 cells expressing R408W PAH; 24 hrs with compound, then 20 μM sepiapterin and 800 μM 13C9,15N-Phenylalanine for 4 hours; 13C-Tyrosine by LC-MS; average where tested multiple times

Row | AC50 [nM] | Structure (SMILES)
11 | ≥ 5000 | O=C(c1cnn2cc(CCN3CCOCC3)ccc12)N1CCc2[nH]cnc2C1c1nc2cc(F)ccc2o1 (stereo not shown)
12 | ≥ 5000 | O=C(c1cnco1)N1CCc2[nH]cnc2C1c1nc2c(F)c(F)ccc2o1 (stereo not shown)

Row | Structure (SMILES) | AC50 [nM]
13 | O=C(c1cnn2cc(N3CCNCC3)ccc12)N1CCc2[nH]cnc2[C@H]1c1nc2cc(F)ccc2o1 (single isomer, unassigned) | ≥ 5000
